From patent US10533034B2, “Human iNKT cell activation using glycolipids” (ACADEMIA SINICA, priority 2014, dated 2020)

Experiments:
B6 wild type mice [1] = conditions: previously reported; cited from earlier work
[2] = system: iNKT TCR of DN3A4-1.2 Vα14+ iNKT hybridoma cells; test: Binding avidity of mCD1d-loaded glycolipids to Vα14+ iNKT cells (ternary interaction); set-up: species or system mouse
Description: (3A) DN3A4-1.2 Vα14+ iNKT hybridoma cells and (3B) 7DW8-5-expanded Vα24^+ iNKT cells were incubated with various concentrations of the indicated dimeric mCD d-glycolipid and hCD1d-glycolipid complexes for 30 min at 4° C., respectively. The level of bound complexes at the indicated concentration was detected by anti-mIgG1 secondary antibody and analyzed by flow cytometry. The relationship between the binding percentage and the concentration of CD1ddi-glycolipids complex was plotted in mice (3A) and humans (3B). KD values in mice (3C) and humans (3D) were calculated from Scatchard transformation of the plot (3A) and 3B), respectively. Assay was performed in duplicates.
Briefly, murine CD1d:Ig dimer (BD Biosciences PharMingen, San Diego, Calif.) was loaded with glycolipids at a molar ratio of 1:10 or vehicle for overnight at 37° C. Murine 1.2 Vα14+ iNKT cells were incubated with various doses of dimer-glycolipid complex in buffer containing azide (0.05%) for 30 min at 4° C. These cells were then stained with anti-mouse IgG1-PE mAb (A85-1) for another 30 min at 4° C., followed by washing, fixation with 4% paraformaldehyde (PFA), and the bound mCD1d dimer complexes were detected by flow cytometry. The binding curve and linear fit of the Scatchard transformation were plotted by Graphpad Prism software.
Next, we measured the ternary interaction between CD1d-glcolipid complex and the iNKT TCR in mice and humans. Different concentrations of mCD1d^di-glycolipid and hCD1d^di-glycolipid complexes were incubated with fixed amounts of DN3A4-1.2 murine iNKT hybridoma cells and human Vα24+/Vβ11^+ iNKT cells, respectively. The level of bound complexes at the indicated concentration was detected by anti-mIgG1 secondary antibody and analyzed by flow cytometry (FIGS. 3A and 3B). The KD of the ternary complex was calculated from the Scatchard transformation of the plots in FIGS. 3A and 3B using GraphPad Prism software. […] This was consistent with the observation that higher percentages of C1-pulsed splenocytes were stained by the mCD1d-7DW8-5 complex (36.2±5.0%) than mCD1d-7DW8-5-Glc complex (17.1±0.8%) (FIG. 11).

Jα18 KO mice = test: Murine serum cytokine/chemokine secretion after i.v. glycolipid, Jα18 knockout mice; type: in vivo; conditions: 1 μg/mouse; sera 2 and 18 hr
Description: (§1) B6 wild type and Jα18 knockout mice were i.v. injected with the indicated glycolipids (1 μg/mouse) or vehicle. Sera collected at 2 h and 18 h post-injection were analyzed for cytokines like IL-2 (7A), IL-6 (7B), GM-CSF (7C) and TNFα (7D) as well as chemokines such as IP-10 (7E), MIG (7F), KC (7G) and MCP-1 (7H). Only MIG peaked at 18 hr post-injection, while the others peaked at 2 hr post-injection.
(§2) All the glycolipids were dissolved in 100% DMSO at a concentration of 1-2 mg/ml. For in vivo experiments, all compounds were diluted to 10 μg/ml in saline just before injection of 100 μl diluted glycolipid or 100 μl 1% DMSO into mice. Pathogen-free C57BL/6 female mice aged 6-12 weeks were obtained from the National Laboratory Animal Center (Taipei, Taiwan). Jα18 knockout (KO) B6 mice were the gifts from Dr. Masaru Taniguchi (RIKEN Research Center for Allergy and Immunology, Yokohama, Japan). All the mice were maintained in pathogen free vivarium of Institute of Cellular and Organismic Biology, Academia Sinica (Taipei, Taiwan).
(§3) B6 WT or Jα18 KO mice were intravenously injected with vehicle or glycolipids at 0.1 or 1 μg/mouse. Serum was collected at 2 and 18 h after injection for measurement of cytokines/chemokines by Beadlyte® Mouse Cytokine kit (Millipore, N.Y.) and read by a Luminex® 200™ system (Luminex, Austin, Tex.).

B6 wild type mice [3] = test: Murine serum cytokine/chemokine secretion after i.v. glycolipid, wild type mice; type: in vivo, mouse
Description: B6 wild type mice were i.v. injected with 7DW8-5-Glc at 0.1 or 1 μg/mouse. Sera collected at 2 h and 18 h post-injection were analyzed for chemokine secretions such as IP-10 (6A), KC (6B), MCP-1 (6C), and MIP-1α (6D). These chemokines peaked at 2 hr post-injection.
as §1, §2, §3
Previously, 0.1 μg/mouse of 7DW8-5 was sufficient for immune stimulation,^19 but higher dosage (1 μg/mouse) was required for the glucose analog 7DW8-5-Glc to induce immune responses (FIG. 6). Thus, the biological activities of newly synthesized glycolipids were tested in B6 mice 2 and 18 hr after i.v. injection of glycolipids at 1 μg/mouse. […] As compared to GSLs with αGlc, GSLs with αGal induced higher levels of cytokines and chemokines, including IFN-γ, IL-2, IL-4, IL-6, GM-CSF, TNFα and IP-10.

| SMILES | dose sufficient for immune stimulation (B6 wild type mice [1]) [μg/mouse] | fold stronger interaction with iNKT TCR than mCD1d-7DW8-5-Glc complex ([2]; mCD1d complex) [fold] | induction of cytokines in Jα18 KO mice (Jα18 KO mice) | levels of KC, MCP-1, IP-10 and MIG chemokines induced (B6 wild type mice [3]; 1 μg/mouse i.v., 2 and 18 hr) | levels of Th1 and Th2 cytokines induced (B6 wild type mice [3]; 1 μg/mouse i.v., 2 and 18 hr) | dosage required to induce immune responses (B6 wild type mice [3]; i.v., sera 2 h and 18 h) [μg/mouse] | secretion of chemokines KC, MCP-1, IP-10 and MIG in Jα18 KO mice (Jα18 KO mice) | induction of serum cytokines/chemokines (B6 wild type mice [3]; 1 μg/mouse i.v., 2 and 18 hr) | staining of murine iNKT cells with CD1d-glycolipid dimer [2] |
| --- | --- | --- | --- | --- | --- | --- | --- | --- | --- |
| CCCCCCCCCCCCCC[C@@H](O)[C@@H](O)[C@H](CO[C@H]1O[C@H](CO)[C@H](O)[C@H](O)[C@H]1O)NC(=O)CCCCCCCCCCc1ccc(F)cc1 [Compound 7DW8-5, reference compound] | 0.1 | ~10 | no induction | – | – | – | – | – | – |
| CC[C@@H](O)[C@@H](O)[C@H](CO[C@H]1OC(CO)[C@@H](O)C(O)C1O)NC(=O)Cc1ccc(F)cc1 (stereo partly shown) [Compound 7DW8-5-Glc] | – | – | no induction | relatively high levels | very low levels | 1 | triggered the secretion | – | – |
| CCCCCCCCCCCCCC[C@@H](O)[C@@H](O)[C@H](CO[C@H]1O[C@H](CO)[C@@H](O)[C@H](O)[C@@H]1O)NC(=O)CCCCCCCCCCc1ccc(F)cc1 [Compound 7DW8-5-Man] | – | – | – | – | – | – | – | failed to induce any cytokines/chemokines | lack of staining |
